Experimental data taken from ChEMBL document CHEMBL1156953, “Novel pyrrolyl 2-aminopyridines as potent and selective human beta-secretase (BACE1) inhibitors” (Bioorg Med Chem Lett, 2010).

assay: Dissociation constant, pKa of the compound; type: physicochemical

pKa, 6.86:
N#CCCCOc1ccc(-c2ccc(-c3ccccc3Cl)n2Cc2cccc(N)n2)cc1
CCCCCOc1ccc(-c2ccc(-c3ccccc3Cl)n2Cc2ccc(NCCO)c(N)n2)cc1
CCCCCOc1ccc(-c2ccc(-c3ccccc3Cl)n2Cc2ccc(NCCCO)c(N)n2)cc1
CCCOc1ccc(-c2ccc(-c3ccccc3Cl)n2Cc2cccc(N)n2)cc1
CCCCOc1ccc(-c2ccc(-c3ccccc3Cl)n2Cc2cccc(N)n2)cc1
CCNC(=O)c1ccc(-c2ccc(-c3ccccc3)n2Cc2cccc(N)n2)cc1
CCCNC(=O)c1ccc(-c2ccc(-c3ccccc3)n2Cc2cccc(N)n2)cc1
CCCCNC(=O)c1ccc(-c2ccc(-c3ccccc3)n2Cc2cccc(N)n2)cc1
Nc1nc(Cn2c(-c3ccc(Oc4cncnc4)cc3)ccc2-c2ccccc2Cl)ccc1OCCO
Nc1nc(Cn2c(-c3ccc(Oc4cncnc4)cc3)ccc2-c2ccccc2Cl)ccc1NCCO
Nc1cccc(Cn2c(-c3ccc(Oc4ccncc4)cc3)ccc2-c2ccccc2Cl)n1
Nc1cccc(Cn2c(-c3ccc(Oc4cccnc4)cc3)ccc2-c2ccccc2Cl)n1
Nc1cccc(Cn2c(-c3ccc(Oc4ccccc4)cc3)ccc2-c2ccccc2Cl)n1
Nc1cccc(Cn2c(-c3ccc(Oc4ccccn4)cc3)ccc2-c2ccccc2Cl)n1
Nc1cccc(Cn2c(-c3ccc(Oc4cncnc4)cc3)ccc2-c2ccccc2Cl)n1
Nc1cccc(Cn2c(-c3ccc(Oc4cnccn4)cc3)ccc2-c2ccccc2Cl)n1
CCCCCCOc1ccc(-c2ccc(-c3ccccc3Cl)n2Cc2cccc(N)n2)cc1
C=CCNC(=O)c1ccc(-c2ccc(-c3ccccc3)n2Cc2cccc(N)n2)cc1
CC(C)NC(=O)c1ccc(-c2ccc(-c3ccccc3)n2Cc2cccc(N)n2)cc1
Nc1cccc(Cn2c(-c3ccccc3)ccc2-c2ccccc2)n1
Nc1cccc(Cn2c(-c3ccc(Oc4cccnn4)cc3)ccc2-c2ccccc2Cl)n1
Nc1cccc(Cn2c(-c3ccc(Oc4cccs4)cc3)ccc2-c2ccccc2Cl)n1
Nc1cccc(Cn2c(-c3ccccc3)ccc2-c2ccc(C(=O)NC3CC3)cc2)n1
Nc1cccc(Cn2c(-c3ccccc3)ccc2-c2ccc(C(=O)NC3CCC3)cc2)n1
COc1ccc(-c2ccc(-c3ccccc3Cl)n2Cc2cccc(N)n2)cc1
CCCCCOc1ccc(-c2ccc(-c3ccccc3Cl)n2Cc2cccc(N)n2)cc1
Nc1cccc(Cn2c(-c3ccc(Nc4cncnc4)cc3)ccc2-c2ccccc2Cl)n1
CCCCCOc1ccc(-c2ccc(-c3ccccc3Cl)n2Cc2ccc(OCCO)c(N)n2)cc1
CCCCCOc1ccc(-c2ccc(-c3ccccc3Cl)n2Cc2ccc(OCCCO)c(N)n2)cc1
